The subject of series [1] is MDM2 mRNA in MM1s and NCI-H929 cells. In words: RT-PCR of MDM2 mRNA after miRNA transfection and Nutlin-3a. Type of series: cell-based, human. Conditions: transfected cells at 6 and 12 hr of Nutlin-3a treatment, both cell lines. As for the experimental part:
FIG. 4F: MDM2 mRNA expression normalized for GAPDH mRNA expression in MM1s and NCIH929 cells miRNAs or Scr transfected after Nutlin-3a treatment (6-12 hr).
RNA was isolated from cell lines using Trizol reagent (Invitrogen) as per the manufacturer's protocol. An aliquot of 5 μg RNA was then used for cDNA synthesis using the SuperScript first strand cDNA synthesis kit (Invitrogen). RT-PCRs were carried out using ABI Prism 7900HT sequence detection systems with Applied Biosystems TaqMan Gene expression assays (p21 (CDKN1A):Hs01121172_ml; MYC:Hs99999003_ml; TP53:Hs00153349_ml; MDM2: Hs01066938_ml).

Series [2] deals with […] RPMI-8226 IGF-1 treated cells. As to the kind of experiment: Adhesion assay on fibronectin in response to IGF-1. Type of series: cell-based, human. The following applies: ectopic expression, vs Scr control. The procedure: FIG. 21A, FIG. 21B: MM1s and RPMI-8226 cells (pre-miRNA-192, -194, -215, Scr sequence-transfected) at 48 hr after transfection were harvested, treated with calcein and incubated with IGF-1 (50 ng/ml) and their ability to adhere to fibronectin plates was assessed by fluorescence assay. MM1s (FIG. 21A) and RPMI-8226 (FIG. 21B) with ectopic re-expression of miR-192, 215 and also miR-194 lost their ability to respond to IGF-1 treatment compare to Scr sequence.
Before adhesion, MM cell lines were starved overnight in RPMI 1640/0.5% BSA, without loss of viability. Cells (5×10^6/ml) were labeled with calcein-a.m. (Molecular Probes, Eugene, Oreg.) for 30 min at 37° C., washed, and resuspended in adhesion medium (RPMI 1640/10% FBS). Cells were stimulated with or without IGF-1 at 0-200 ng/ml for 20 min and added in triplicate to Fibronectin-coated 48 well plates (BD Biosciences #354506, Bedford, Mass.) at 37° C. for 30 min, and unbound cells were removed by four washes with RPMI1640. The absorbance of each well was measured using 492/520 nm filter set with a fluorescence plate reader (Wallac VICTOR2; Perkin-Elmer, Boston, Mass.).

The test system of series [3] is GFP+/Luc+ MM1S cells. In words: In vivo homing model, iv injected transfected MM1S cells plus weekly iv miRNA. Set-up: species or system NOD-SCID mice. Conditions: for tumor burden (bioluminescence imaging): 5 wk post-injection, 10 μg iv weekly for 4 wk, vs Scr; for bone marrow engraftment of MM1s (human CD-138+ cells by FACS): 35 days after injection, Scr-treated mice ~25±15%. The procedure:
FIG. 7C: In vivo confocal imaging. 8×10^6GFP+/Luc+ MM1s cells were transfected using either pre-miRNA-192, miR-194, miR-215 and Scr RNA oligos and then iv injected into mice immediately after transfection. After 1 wk the mice were miRNAs iv injected (10 ug) once a wk for 4 wk and the bioluminescence intensity was assessed before every injection.
FIG. 7D: Representative bioluminescence imaging (BLD after 5 wk from the injection.
FIG. 7E: Bone marrow cells from the mice used for the experiment were isolated and human CD-138 positive cells (engrafted cells) were detected using anti-CD-138 antibody by flow cytometry (P2 fraction).
As shown in FIG. 7B and FIG. 21C, IGF-1 (50 ng/ml) stimulated migration of MM cells, MM1s and RPMI-8226. To further examine the role of miRNA-192, miR-215 and miR-194 in MM cells, the inventors investigated the effect of these miRNAs on migration in vivo, using a homing model (Roccaro et al., Blood, 113:6669-6680 (2009)). Nine NOD-SCID mice (for each group) were intravenously injected with 8×10^6 of pre-miRNA-192-, -194 and -215 or Scr probe-transfected GFP^+/Lue^+ MM1S cells. One wk later, mice were iv-injected every week for 4 wk with an individual miRNA or Scr dissolved in PBS (10 μg for each mouse).
Mice were injected with 75 mg/kg of Luciferin (Xenogen, Hopkington, Mass.), and tumor growth was detected by bioluminescence 10 min after the injection. The home-built bioluminescence system used an electron multiplying CCD (Andor Technology Limited, Belfast, United Kingdom) with an exposure time of 30 sec, and an electron multiplication gain of 500 voltage gain×200, 5-by-5 binning, and with background subtraction. Images were analyzed using Image-J software (National Institutes of Health, Bethesda, Md.).
Animal studies were performed according to institutional guidelines. For the sub-cutaneous engraftment model 8 wk old male athymic nu/nu mice (Charles River Laboratories, Wilmington, Mass.) were maintained in accordance with IACUC procedures and guidelines. 8×10^6 of GFP/Luc+MM1s cells were suspended in 0.10 ml of extracellular matrix gel (BD Biosciences) and the mixture was injected subcutaneously into the right flank. […] Measurements of xenograft growth were performed, and tumor volume was estimated using the formula 4/3 a (L*W*H/8). Tumor size was assessed by digital caliper. […] Tumor size was assessed every 7 days by, bioluminescence images. Thirty-five days after injection, mice were analyzed by bioluminescence images and then sacrificed. MM1s bone marrow isolated cells were stained with anti-human CD-138 antibody (BD) and analyzed by FACS analysis. Statistical significance of differences between control and treated animals was evaluated using Student's t test. […]

The text below walks through data of patent US20130150430A1, “Methods for Impairing the P53/HDM2 Auto-Regulatory Loop in Multiple Myeloma Development Using mIR-192, mIR-194 and mIR-215” (THE OHIO STATE UNIVERSITY, priority 2011, published 2013).

As for “miR-192: microRNA, p53-activated, down-regulated in MM; transfected as miRNA precursor (Ambion) or lentivector; SEQ ID NO:56 (CUGACCUAUGAAUUGACAGCC; listed as RNA, chemistry not given here; listed as Homo sapiens)”, in series [1], the “MDM2 mRNA levels” value is “strongly reduced”. In addition, the cell adhesion result in series [2] is given as “significant decrease”. For the same substance, in series [3], the “tumor burden (bioluminescence imaging)” value is reported as “nearly nonexistent” and the “bone marrow engraftment of MM1s (human CD-138+ cells by FACS)” value is 4±2%.
The matching figures for “miR-215: microRNA, p53-activated, down-regulated in MM; transfected as miRNA precursor (Ambion) or lentivector; SEQ ID NO:58 (AUGACCUAUGAAUUGACAGAC; listed as RNA, chemistry not given here; listed as Homo sapiens)”: “strongly reduced”, “significant decrease”, “nearly nonexistent” and 2±2%.
